This experiment deals with Inositol 1,4,5-trisphosphate-gated calcium channel ITPR3 (Homo sapiens, UniProt Q14573). As to the kind of experiment: Dissociation constant of compound was measured in IP3-binding domain(IBD) of human Inositol 1,4,5-trisphosphate receptor at pH 7.4.
Inositol 1,4,5-trisphosphate-gated calcium channel ITPR3, sequence (Q14573 whole entry, the tested form may be a part): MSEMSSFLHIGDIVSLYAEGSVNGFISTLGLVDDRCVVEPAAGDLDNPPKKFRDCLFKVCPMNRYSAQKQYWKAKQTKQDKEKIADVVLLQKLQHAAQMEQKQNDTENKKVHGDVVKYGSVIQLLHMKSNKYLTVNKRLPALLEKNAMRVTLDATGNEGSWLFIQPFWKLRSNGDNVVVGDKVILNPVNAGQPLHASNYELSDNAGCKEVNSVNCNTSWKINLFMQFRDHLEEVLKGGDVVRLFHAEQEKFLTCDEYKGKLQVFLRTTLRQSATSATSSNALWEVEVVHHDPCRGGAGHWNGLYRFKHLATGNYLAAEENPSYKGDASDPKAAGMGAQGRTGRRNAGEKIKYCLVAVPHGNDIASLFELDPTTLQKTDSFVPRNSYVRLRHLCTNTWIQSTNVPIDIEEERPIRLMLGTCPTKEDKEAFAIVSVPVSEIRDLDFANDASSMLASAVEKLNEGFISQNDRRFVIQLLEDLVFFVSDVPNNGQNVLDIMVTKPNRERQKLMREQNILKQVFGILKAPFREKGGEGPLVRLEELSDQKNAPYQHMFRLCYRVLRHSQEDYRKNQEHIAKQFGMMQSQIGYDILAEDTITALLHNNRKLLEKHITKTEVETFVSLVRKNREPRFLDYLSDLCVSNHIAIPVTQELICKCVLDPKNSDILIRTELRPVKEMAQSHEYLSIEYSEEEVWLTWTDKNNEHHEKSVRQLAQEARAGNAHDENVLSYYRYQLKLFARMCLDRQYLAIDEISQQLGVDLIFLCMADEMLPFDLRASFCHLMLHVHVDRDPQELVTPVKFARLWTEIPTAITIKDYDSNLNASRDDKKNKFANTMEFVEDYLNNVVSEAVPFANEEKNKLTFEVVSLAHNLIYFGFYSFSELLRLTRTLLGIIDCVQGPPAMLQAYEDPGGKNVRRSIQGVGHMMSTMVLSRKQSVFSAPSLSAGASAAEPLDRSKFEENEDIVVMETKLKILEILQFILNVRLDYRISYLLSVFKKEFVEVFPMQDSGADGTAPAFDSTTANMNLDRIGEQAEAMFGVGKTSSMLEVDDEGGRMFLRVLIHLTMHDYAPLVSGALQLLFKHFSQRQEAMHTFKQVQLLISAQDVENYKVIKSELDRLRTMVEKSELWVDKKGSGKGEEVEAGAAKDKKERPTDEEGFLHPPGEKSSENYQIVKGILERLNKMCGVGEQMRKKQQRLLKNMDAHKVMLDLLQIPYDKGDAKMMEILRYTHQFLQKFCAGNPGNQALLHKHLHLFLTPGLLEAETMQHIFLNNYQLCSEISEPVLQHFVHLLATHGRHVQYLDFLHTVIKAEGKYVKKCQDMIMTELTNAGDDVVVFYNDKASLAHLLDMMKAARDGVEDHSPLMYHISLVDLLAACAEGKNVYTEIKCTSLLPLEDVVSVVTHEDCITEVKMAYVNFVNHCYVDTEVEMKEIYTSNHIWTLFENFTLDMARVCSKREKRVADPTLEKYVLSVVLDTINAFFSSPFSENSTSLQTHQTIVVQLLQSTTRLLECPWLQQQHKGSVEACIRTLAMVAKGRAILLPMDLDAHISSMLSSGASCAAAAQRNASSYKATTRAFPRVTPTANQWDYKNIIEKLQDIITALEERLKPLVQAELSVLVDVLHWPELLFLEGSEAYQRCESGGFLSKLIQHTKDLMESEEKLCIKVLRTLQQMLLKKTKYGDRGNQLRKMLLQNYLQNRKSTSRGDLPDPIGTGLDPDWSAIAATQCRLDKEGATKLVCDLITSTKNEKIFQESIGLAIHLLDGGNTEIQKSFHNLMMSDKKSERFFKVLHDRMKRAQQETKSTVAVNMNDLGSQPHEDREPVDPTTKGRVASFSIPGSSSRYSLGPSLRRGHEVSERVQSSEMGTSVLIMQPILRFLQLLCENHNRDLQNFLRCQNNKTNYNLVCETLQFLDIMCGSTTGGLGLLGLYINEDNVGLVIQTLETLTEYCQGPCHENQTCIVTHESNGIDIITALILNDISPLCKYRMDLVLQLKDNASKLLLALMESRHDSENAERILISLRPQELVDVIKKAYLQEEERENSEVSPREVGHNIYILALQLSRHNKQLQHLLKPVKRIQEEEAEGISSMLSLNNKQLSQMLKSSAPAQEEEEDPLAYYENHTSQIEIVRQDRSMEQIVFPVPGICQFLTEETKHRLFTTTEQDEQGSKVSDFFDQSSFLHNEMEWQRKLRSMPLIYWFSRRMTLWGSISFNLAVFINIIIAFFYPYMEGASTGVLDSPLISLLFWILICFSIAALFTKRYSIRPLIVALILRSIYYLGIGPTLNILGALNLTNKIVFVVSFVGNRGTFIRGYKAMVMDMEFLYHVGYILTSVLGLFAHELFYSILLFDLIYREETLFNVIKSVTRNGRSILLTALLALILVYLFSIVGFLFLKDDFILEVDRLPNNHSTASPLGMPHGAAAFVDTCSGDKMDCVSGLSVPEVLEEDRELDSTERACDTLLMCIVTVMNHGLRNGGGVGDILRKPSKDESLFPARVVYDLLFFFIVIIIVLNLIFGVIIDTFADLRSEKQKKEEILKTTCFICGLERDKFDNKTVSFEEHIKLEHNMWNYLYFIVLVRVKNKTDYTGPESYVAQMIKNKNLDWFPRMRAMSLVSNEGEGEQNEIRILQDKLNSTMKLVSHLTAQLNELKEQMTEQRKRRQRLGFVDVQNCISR

By Kd is commonly meant the concentration at which binding is half-saturated. Take `NCCCOP(=O)(O)O[C@@H]1[C@H](O)[C@H](O)[C@@H](OP(=O)(O)O)[C@H](OP(=O)(O)O)[C@H]1O`: the Kd is 1120 nM.

Turning to `CN(C)c1ccc(C(=C2C=CC(=[N+](C)C)C=C2)c2ccc(C(=O)NCCCOP(=O)(O)O[C@@H]3[C@H](O)[C@H](O)[C@@H](OP(=O)(O)O)[C@H](OP(=O)(O)O)[C@H]3O)cc2)cc1`, the Kd was 1.17 nM.

For `O=C(NCCCOP(=O)(O)O[C@@H]1[C@H](O)[C@H](O)[C@@H](OP(=O)(O)O)[C@H](OP(=O)(O)O)[C@H]1O)Oc1ccc2c(c1)Oc1cc(O)ccc1C21OC(=O)c2ccccc21` (stereo partly drawn), the Kd amounted to 188 nM.

For the origin of these results see ChEMBL document CHEMBL1132266, “Synthesis and evaluation of 1-position-modified inositol 1,4,5-trisphosphate analogs” (Bioorg Med Chem Lett, 1999).
